Measurements as given in patent publication US10793576B2, “Compound used as Bruton's tyrosine kinase inhibitor and preparation method and application thereof” (Chengdu Brilliant Pharmaceutical Co., LTD., priority 2017, dated 2020).

Tests used:
OCI-LY10 cells = test: Cell proliferation inhibition in vitro, OCI-ly10 cells by CCK-8 method; type: cell-based; conditions: Homo sapiens, 72 hours, read-out: Inhibitions of cell activities IC50 (nM) OCI-LY10
DOHH2 cells = test: Cell proliferation inhibition in vitro, DOHH2 cells by CTG assay; type: cell-based; conditions: Homo sapiens, DOHH-2, 72 hours, read-out: Inhibitions of cell activities IC50 (nM) DOHH2
TMD8 cells = test: Cell proliferation inhibition in vitro, TMD8 cells by CCK-8 method; type: cell-based; conditions: Homo sapiens, 72 hours, read-out: Inhibitions of cell activities IC50 (nM) TMD8
[1] = Pharmacokinetic test in SD rats (oral 10 mg/kg, intravenous 1 mg/kg); type: in vivo; conditions: SD rat; for F (po) %: oral 10 mg/kg vs intravenous 1 mg/kg; for AUC / Cmax / Tmax / clearance / half-life: male, plasma; for AUC / Cmax / Tmax: oral 10 mg/kg; for clearance / half-life: intravenous 1 mg/kg; for clearance: read-out: Cl (iv) (converted); for half-life: read-out: T½ (iv) h (converted)
Method: SD rat, male (purchased from Shanghai Sippr-Bk Laboratory Animal Co., Ltd.), each tested compound was administered at a single dose to SD rats by oral administration (10 mg/kg, 3 rats in each group) and intravenous administration (1 mg/kg, 3 rats in each group) for the pharmacokinetic study. The tested compounds were dissolved using DMSO/[…] sodium chloride injection=5/95 (V/V), and vortexed for 1 minute, and after 1 minute of sonication, the compounds were formulated into solutions for administrations. Animals were fasted for 16-17 hours prior to oral administration and feeding was restored 4 hours after administration. After oral and intravenous administration, pharmacokinetic samples were collected from SD rats by jugular vein or cardiac puncture at the following time points: before administration, 5 minute, 15 minute, 30 minute, 1 hour, 2 hours, 4 hours, 6 hours, 8 hours and 24 hours after administration. 3 whole blood samples were collected at each time point, and the collected amount was about 0.2 mL, and the collected samples were anticoagulated by heparin sodium. After collection, the blood samples were immediately placed on ice and centrifuged to separate plasma within 30 minutes (centrifugation conditions: 8000 rpm, 6 minute, 2-8° C.). The collected plasma was stored at −70° C. prior to analysis. 50 μL of plasma sample was brought into a 1.5 mL centrifuge tube, 250 μL of internal standard solution (blank with no internal standard but the same volume of methanol added) was added, blended with vortex, centrifuged at 15000 rpm for 5 minutes. 200 μL of supernatant was taken and added to a 96-well sample plate and the samples were analyzed by LC-MS/MS.

hERG potassium channel = hERG potassium channel (Homo sapiens (Human), UniProt Q12809); test: hERG experiment to investigate potential cardiotoxicity (manual patch clamp, CHO hERG cells); type: cell-based; conditions: whole cell patch clamp, tail current
Method: CHO hERG cells were grown in a culture dish containing the above medium, and cultured in an incubator at 37° C. and 5% CO2. CHO hERG cells were transferred to circular glass slides placed in the culture dish 24-48 hours prior to electrophysiological experiments and grown under the same medium and culture conditions as above. The density of CHO hERG cells on each circular slide shall meet the requirement that most of the cells are independent and individual.
2: Preparation of Experimental Solutions
3: Electrophysiological Recording System
A manual patch clamp system (HEKA EPC-10 signal amplifier and digital conversion system, purchased from HEKA Electronics, Germany) is used in this experiment for whole cell currents recording. A circular slide with CHO hERG cells grown on its surface was placed in an electrophysiology recording tank under an inverted microscope. The extracellular fluid was continuously perfused in the recording tank (about 1 ml per minute). A conventional whole cell patch clamp current recording technique was used in the experimental procedure. Unless otherwise specified, the experiments were carried out at conventional room temperature (about 25° C.). The cells were clamped at a voltage of −80 mV. The clamp voltage for cells was depolarized to +20 mV to activate the hERG potassium channel, and after 5 seconds, the cells were clamped to −50 mV to eliminate inactivation and generate a tail current. The tail current peak was used as the value of the hERG current magnitude. After the hERG potassium current recorded in the above step was stable under the continuous extracellular fluid perfusion in the recording tank, the drug to be tested can be perfused simultaneously and filled until the inhibitory effect of the drug on the hERG current reached a steady state. Generally, the superposition of the last three consecutive current recording lines was used as a criterion for judging whether or not the state was stable. After reaching a steady state, a wash with extracellular fluid perfusion was conducted until the hERG returned to that before the drug was added. One cell can be used to test one or more drugs, or multiple concentrations of the same drug, but need to be washed with an extracellular fluid between different drugs. Cisapride (purchased from Sigma) was used as a positive control in the experiment to ensure that the cells used were of normal quality.
4: Treatment and Dilution of Compounds
Prior to testing, the compounds were first diluted to 10, 3, 1, 0.3, and 0.1 mM stock solutions by a method of gradual dilution with DMSO, and were then diluted to the final M test concentration with extracellular fluids. The final concentration of DMSO in each of the other compound solutions was 0.1%, except that the DMSO concentration in the 30 μM compound test solution was 0.3%. The test concentration of the positive control (Cisapride) was 0.1 μM. All compound solutions were sonicated and shaken for a routine of 5 to 10 minutes to ensure complete dissolution of the compounds.
The test data were analyzed by HEKA Patchmaster, Microsoft Excel and data analysis software provided by Graphpad Prism.

BTK kinase = BTK kinase (Homo sapiens (Human), UniProt Q06187); test: In vitro assay for the inhibition of BTK kinase activity (Mobility-Shift Assay); type: biochemical
In short: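 Fluorescently labelled peptide substrate converted by the kinase; substrate and phosphorylated product separated by charge on a microfluidic chip (mobility shift) and quantified separately. Results expressed as conversion rate; control wells received 100% DMSO.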

BTK kinase, sequence (Q06187 whole entry): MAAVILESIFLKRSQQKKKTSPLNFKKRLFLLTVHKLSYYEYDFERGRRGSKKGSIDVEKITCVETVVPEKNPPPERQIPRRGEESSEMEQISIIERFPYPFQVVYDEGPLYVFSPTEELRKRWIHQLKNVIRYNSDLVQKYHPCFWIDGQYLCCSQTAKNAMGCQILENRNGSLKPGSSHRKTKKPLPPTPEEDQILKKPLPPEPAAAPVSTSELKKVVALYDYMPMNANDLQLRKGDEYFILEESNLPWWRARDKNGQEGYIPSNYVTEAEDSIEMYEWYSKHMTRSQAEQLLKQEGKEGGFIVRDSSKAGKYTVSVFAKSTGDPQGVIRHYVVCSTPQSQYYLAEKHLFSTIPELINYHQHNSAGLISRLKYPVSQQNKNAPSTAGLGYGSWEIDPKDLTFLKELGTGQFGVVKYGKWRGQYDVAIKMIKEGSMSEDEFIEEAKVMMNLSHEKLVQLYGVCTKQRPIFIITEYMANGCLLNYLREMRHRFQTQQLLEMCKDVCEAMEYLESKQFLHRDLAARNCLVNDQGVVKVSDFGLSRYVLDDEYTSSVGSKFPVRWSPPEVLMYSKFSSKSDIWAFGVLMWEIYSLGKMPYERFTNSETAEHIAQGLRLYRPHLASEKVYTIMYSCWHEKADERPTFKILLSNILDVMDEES
hERG potassium channel, sequence (Q12809 whole entry): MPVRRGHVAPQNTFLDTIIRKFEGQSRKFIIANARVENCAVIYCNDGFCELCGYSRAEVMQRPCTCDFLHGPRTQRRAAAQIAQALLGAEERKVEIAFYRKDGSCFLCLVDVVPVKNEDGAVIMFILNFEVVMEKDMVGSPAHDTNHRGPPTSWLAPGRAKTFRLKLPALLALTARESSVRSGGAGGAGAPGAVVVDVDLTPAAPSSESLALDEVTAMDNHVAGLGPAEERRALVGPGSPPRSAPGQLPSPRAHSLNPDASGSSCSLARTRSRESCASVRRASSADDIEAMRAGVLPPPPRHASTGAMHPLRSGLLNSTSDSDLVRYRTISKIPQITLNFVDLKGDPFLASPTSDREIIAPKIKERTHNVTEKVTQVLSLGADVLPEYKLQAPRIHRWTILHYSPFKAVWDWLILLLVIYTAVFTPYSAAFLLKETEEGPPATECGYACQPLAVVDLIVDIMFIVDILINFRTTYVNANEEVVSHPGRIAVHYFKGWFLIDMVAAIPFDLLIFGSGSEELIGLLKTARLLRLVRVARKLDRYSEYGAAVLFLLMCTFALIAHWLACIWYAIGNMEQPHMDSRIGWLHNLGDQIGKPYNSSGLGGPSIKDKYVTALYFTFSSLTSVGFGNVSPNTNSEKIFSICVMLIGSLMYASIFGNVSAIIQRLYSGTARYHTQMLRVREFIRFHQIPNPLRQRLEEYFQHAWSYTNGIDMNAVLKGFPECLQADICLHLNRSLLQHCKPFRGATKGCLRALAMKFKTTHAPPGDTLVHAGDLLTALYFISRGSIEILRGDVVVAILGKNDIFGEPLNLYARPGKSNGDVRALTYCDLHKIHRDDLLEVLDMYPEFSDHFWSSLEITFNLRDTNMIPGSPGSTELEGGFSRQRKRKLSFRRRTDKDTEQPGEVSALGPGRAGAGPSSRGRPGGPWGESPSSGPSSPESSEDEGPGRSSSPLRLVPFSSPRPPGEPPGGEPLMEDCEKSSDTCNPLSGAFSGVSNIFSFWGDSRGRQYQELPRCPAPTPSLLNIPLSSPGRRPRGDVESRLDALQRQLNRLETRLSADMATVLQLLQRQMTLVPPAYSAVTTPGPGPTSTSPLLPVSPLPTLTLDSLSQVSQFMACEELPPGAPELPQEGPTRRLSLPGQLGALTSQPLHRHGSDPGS

SMILES | IC50 (OCI-LY10 cells) [nM] | F (po) % [1] [%] | AUC [1] [ng·h/mL] | Cmax [1] [ng/mL] | Tmax [1] [min] | clearance [1] [mL/min/kg] | half-life [1] [min] | IC50 (BTK kinase) [nM] | IC50 (DOHH2 cells) [nM] | IC50 (TMD8 cells) [nM] | IC50 (hERG potassium channel) [nM]
C=CC(=O)N1CCC[C@@H](n2nc(-c3ccc(Oc4ccccc4)cc3)c3c(N)ncnc32)C1 [Ibrutinib, reference compound] | 0.41 | 2.67 | 218 | 217 | 19.8 | – | – | – | 705 | 0.28 | –
C=CC(=O)N1CC2CCCC2C1c1nc(-c2ccc(C(=O)Nc3ccccn3)cc2)c2c(N)nccn12 (centres unmarked) [Example 3] | 0.24 | 52.55 | 1490 | 1620 | 16.2 | 57 | 37.2 | – | 191 | 0.26 | > 30000
C=CC(=O)N1C2CCC1(c1nc(-c3ccc(C(=O)Nc4ccccn4)cc3)c3c(N)nccn13)COC2 (centres unmarked) [Example 11] | 1.8 | 34.59 | 1580 | 1610 | 19.8 | 36.5 | 28.2 | 2.6 | 133 | 1.5 | > 30000
C=CC(=O)N1CC2CCCC2[C@H]1c1nc(-c2ccc(Oc3ccccc3)cc2)c2c(N)nccn12 (some centres unmarked) [Example 96] | – | – | – | – | – | – | – | – | – | – | > 30000
CC#CC(=O)N1C2CC[C@@H](C2)C1c1nc(-c2ccc(C(=O)Nc3cc(C(F)(F)F)ccn3)cc2)c2c(N)nccn12 (some centres unmarked) [Example 47] | 0.41 | 21.89 | 971 | 1120 | 15 | 38 | 18 | 5.2 | 172 | 4.6 | > 30000
C=CC(=O)N1C[C@H]2[C@@H]([C@H]1c1nc(-c3ccc(C(=O)Nc4cc(Cl)ccn4)cc3)c3c(N)nccn13)C2(C)C [Example 69] | 0.74 | – | – | – | – | – | – | 1.4 | 124 | 0.62 | –
C=CC(=O)N1C2CC[C@@H](C2)C1c1nc(-c2ccc(C(=O)Nc3cc(C(F)(F)F)ccn3)cc2)c2c(N)nccn12 (some centres unmarked) [Example 46] | 0.37 | – | – | – | – | – | – | 4.2 | 94.3 | 3.4 | –
CC#CC(=O)N1CC2CCCC2C1c1nc(-c2ccc(C(=O)Nc3cc(C(F)(F)F)ccn3)cc2)c2c(N)nccn12 (centres unmarked) [Example 43] | 0.42 | – | – | – | – | – | – | 4.4 | 217 | 2.3 | –
C=CC(=O)N1CC2(CC2)C[C@H]1c1nc(-c2ccc(C(C)(O)c3ccccc3)cc2)c2c(N)nccn12 (stereo partly drawn) [Example 74, 1-((6S)-6-(8-amino-1-(4-(1-hydroxy-1-phenylethyl)phenyl)imidazo[1,5-a]pyrazin-3-yl)-5-azaspiro[2.4]heptan-5-yl)prop-2-en-1-one] | 3.5 | – | – | – | – | – | – | 24 | 72 | 9.7 | –
CC#CC(=O)N1C2CC[C@@H](C2)C1c1nc(-c2ccc(Oc3ccccc3)cc2)c2c(N)nccn12 (some centres unmarked) [Example 99] | 2.7 | – | – | – | – | – | – | 39 | > 1000 | 5.4 | –
CC#CC(=O)N1C2CCC1(c1nc(-c3ccc(C(=O)Nc4cc(C(F)(F)F)ccn4)cc3)c3c(N)nccn13)COC2 (centres unmarked) [Example 49] | 3.4 | – | – | – | – | – | – | 4.8 | 436 | 6.4 | –
C=CC(=O)N1C[C@H]2[C@@H](C1c1nc(-c3ccc(C(=O)Nc4cc(C(F)(F)F)ccn4)cc3)c3c(N)nccn13)C2(C)C (some centres unmarked) [Example 44] | 1.3 | – | – | – | – | – | – | 34 | 717 | 7.8 | –

Continued, in another order:

IC50 (OCI-LY10 cells) [nM] | F (po) % [1] [%] | AUC [1] [ng·h/mL] | Cmax [1] [ng/mL] | Tmax [1] [min] | clearance [1] [mL/min/kg] | half-life [1] [min] | IC50 (BTK kinase) [nM] | SMILES | IC50 (DOHH2 cells) [nM] | IC50 (TMD8 cells) [nM] | IC50 (hERG potassium channel) [nM]
1.4 | 19.75 | 266 | 266 | 4.8 | 125 | 7.8 | – | CC#CC(=O)N1CCC[C@H]1c1nc(-c2ccc(C(=O)Nc3ccccn3)cc2)c2c(N)nccn12 [ACP-196, reference compound] | > 1000 | 1.3 | –
0.34 | 34.53 | 1580 | 1590 | 21.6 | 32.7 | 33 | 3.1 | C=CC(=O)N1CC2CCCC2C1c1nc(-c2ccc(Oc3ccccc3)cc2)c2c(N)nccn12 (centres unmarked) [Example 96] | 200 | 3.2 | –
0.25 | – | – | – | – | – | – | 1.4 | C=CC(=O)N1C2C[C@@H](C1c1nc(-c3ccc(C(=O)Nc4ccccn4)cc3)c3c(N)nccn13)N(C(C)=O)C2 (some centres unmarked) [Example 18] | 177 | 1.6 | > 30000
0.38 | 36.56 | 1040 | 1160 | 15 | 58.5 | 36 | 3.3 | C=CC(=O)N1[C@@H]2CC[C@@H](C2)[C@H]1c1nc(-c2ccc(C(=O)Nc3ccccn3)cc2)c2c(N)nccn12 [Example 22, 4-(3-((1R,3S,4S)-2-acryloyl-2-azabicyclo[2.2.1]heptan-3-yl)-8-aminoimidazo[1,5-a]pyrazin-1-yl)-N-(pyridin-2-yl)benzamide] | 182 | 4.2 | > 30000
12.1 | – | – | – | – | – | – | 26 | CN(C/C=C/C(=O)N1CC2CCCC2[C@H]1c1nc(-c2ccc(C(=O)Nc3ccccn3)cc2)c2c(N)nccn12)C1CC1 (stereo partly drawn) [Example 115, 4-(8-amino-3-((1S)-2-((E)-4-(cyclopropyl(methyl)amino)-2-butenoyl)octahydrocyclopenta[c]pyrrol-1-yl)imidazo[1,5-a]pyrazin-1-yl)-N-(pyridin-2-yl) benzamide] | > 1000 | 17.6 | –
0.64 | – | – | – | – | – | – | 1.5 | C=CC(=O)N1C2C[C@@H](C1c1nc(-c3ccc(C(=O)Nc4cc(C(F)(F)F)ccn4)cc3)c3c(N)nccn13)N(C)C2 (some centres unmarked) [Example 54] | 143 | 0.15 | –
3.1 | – | – | – | – | – | – | 9.5 | C=CC(=O)N1C2C[C@@H](C1c1nc(-c3ccc(C(=O)Nc4ccccn4)cc3)c3c(N)nccn13)N(C(C)C)C2 (some centres unmarked) [Example 16] | > 1000 | 1.6 | –
2.4 | – | – | – | – | – | – | 49 | CC#CC(=O)N1[C@@H]2CC[C@@H](C2)[C@H]1c1nc(-c2ccc(C(=O)Nc3ccccn3)cc2)c2c(N)nccn12 [Example 23, 4-(8-amino-3-((1R,3S,4S)-2-(but-2-ynoyl)-2-azabicyclo[2.2.1]heptan-3-yl)imidazo [1,5-a]pyrazin-1-yl)-N-(pyridin-2-yl)benzamide] | > 1000 | 1.1 | –
